Test results published in ChEMBL document CHEMBL1201862, “PubChem BioAssay data set” (2004).
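Values below derive from 48-hour exposures of cells grown in 96-well plates, with endpoints linearly interpolated between the two concentrations bracketing the appropriate inhibition level. GI50: concentration for 50% inhibition of growth.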 Activity calls are given as the source filed them. No stated cut-off is given here; in the data, active = GI50 up to about 1.1 µM and inactive = higher.

Legend:
Assay in all cases: NCI tumour cell line growth inhibition, 48 h
RPMI-8226 = tested on: RPMI-8226
HL-60 = tested on: HL-60
SNB-19 = tested on: SNB-19
RXF 393 = tested on: RXF 393
OVCAR-8 = tested on: OVCAR-8
HCT-116 = tested on: HCT-116
OVCAR-3 = tested on: OVCAR-3
UACC-62 = tested on: UACC-62
EKVX = tested on: EKVX
ACHN = tested on: ACHN
HCC 2998 = tested on: HCC 2998
HOP-62 = tested on: HOP-62
HCT-15 = tested on: HCT-15
LOX IMVI = tested on: LOX IMVI
SN12C = tested on: SN12C
NCI-H460 = tested on: NCI-H460
U-251 = tested on: U-251
DMS-273 = tested on: DMS-273
UO-31 = tested on: UO-31
SK-MEL-28 = tested on: SK-MEL-28
KM12 = tested on: KM12
MOLT-4 = tested on: MOLT-4
SK-MEL-2 = tested on: SK-MEL-2
SNB-78 = tested on: SNB-78
LXFL 529 = tested on: LXFL 529
SW-620 = tested on: SW-620
786-0 = tested on: 786-0
IGROV-1 = tested on: IGROV-1
M14 = tested on: M14
DMS-114 = tested on: DMS-114
HOP-18 = tested on: HOP-18
UACC-257 = tested on: UACC-257
M19-MEL = tested on: M19-MEL
SF-295 = tested on: SF-295
NCI-H23 = tested on: NCI-H23
A549 = tested on: A549
SK-MEL-5 = tested on: SK-MEL-5
OVCAR-4 = tested on: OVCAR-4
Malme-3M = tested on: Malme-3M
HT-29 = tested on: HT-29
OVCAR-5 = tested on: OVCAR-5
NCI-H226 = tested on: NCI-H226
CCRF-CEM = tested on: CCRF-CEM
COLO 205 = tested on: COLO 205
SK-OV-3 = tested on: SK-OV-3
DLD-1 = tested on: DLD-1
TK-10 = tested on: TK-10
CAKI-1 = tested on: CAKI-1
NCI-H522 = tested on: NCI-H522
SR = tested on: SR
KM-20L2 = tested on: KM-20L2
SNB-75 = tested on: SNB-75
SF-268 = tested on: SF-268
HOP-92 = tested on: HOP-92
SF-539 = tested on: SF-539
XF498 = tested on: XF498
K562 = tested on: K562

## COc1cc(C2C(Cl)C(=O)N2n2cnc3ccccc3c2=O)ccc1O (stereo not given)
RPMI-8226
  GI50: 60 µM (inactive)
HL-60
  GI50: > 10 µM (inactive)
SNB-19
  GI50: > 100 µM (inactive)
RXF 393
  GI50: 67.6 µM (inactive)
OVCAR-8
  GI50: > 100 µM (inactive)
HCT-116
  GI50: > 100 µM (inactive)
OVCAR-3
  GI50: 85.1 µM (inactive)
UACC-62
  GI50: 60.8 µM (inactive)
EKVX
  GI50: > 100 µM (inactive)
ACHN
  GI50: > 100 µM (inactive)
HCC 2998
  GI50: > 100 µM (inactive)
HOP-62
  GI50: > 100 µM (inactive)
HCT-15
  GI50: 87.3 µM
LOX IMVI
  GI50: > 100 µM (inactive)
SN12C
  GI50: 89.5 µM (inactive)
NCI-H460
  GI50: > 100 µM (inactive)
U-251
  GI50: 73.1 µM (inactive)
DMS-273
  GI50: > 100 µM (inactive)
UO-31
  GI50: 56.4 µM (inactive)
SK-MEL-28
  GI50: 88.7 µM (inactive)
KM12
  GI50: > 100 µM (inactive)
MOLT-4
  GI50: > 100 µM (inactive)
SK-MEL-2
  GI50: > 100 µM (inactive)
SNB-78
  GI50: > 100 µM (inactive)
LXFL 529
  GI50: > 100 µM (inactive)
SW-620
  GI50: > 100 µM (inactive)
786-0
  GI50: > 100 µM (inactive)
IGROV-1
  GI50: 78.2 µM (inactive)
M14
  GI50: > 100 µM (inactive)
DMS-114
  GI50: 89.1 µM (inactive)
HOP-18
  GI50: 56.6 µM (inactive)
UACC-257
  GI50: 25.4 µM (inactive)
M19-MEL
  GI50: > 100 µM (inactive)
SF-295
  GI50: > 100 µM (inactive)
NCI-H23
  GI50: 39.1 µM (inactive)
A549
  GI50: > 100 µM (inactive)
SK-MEL-5
  GI50: > 100 µM (inactive)
OVCAR-4
  GI50: 94.4 µM (inactive)
Malme-3M
  GI50: > 100 µM (inactive)
HT-29
  GI50: > 100 µM (inactive)
OVCAR-5
  GI50: > 100 µM (inactive)
NCI-H226
  GI50: > 100 µM (inactive)
CCRF-CEM
  GI50: 80 µM (inactive)
COLO 205
  GI50: > 100 µM (inactive)
SK-OV-3
  GI50: 68.9 µM (inactive)
DLD-1
  GI50: > 100 µM (inactive)
TK-10
  GI50: > 100 µM (inactive)
CAKI-1
  GI50: 70.6 µM (inactive)
NCI-H522
  GI50: 34 µM (inactive)
SR
  GI50: 83.6 µM (inactive)
KM-20L2
  GI50: > 100 µM (inactive)
SNB-75
  GI50: 26.1 µM (inactive)
SF-268
  GI50: 76.4 µM (inactive)

## COc1ccc(/C=c2/sc3n(c2=O)NC2(CCC(C)CC2)NN=3)cc1 (stereo not given)
SNB-19
  GI50: > 100 µM (inactive)
RXF 393
  GI50: > 100 µM (inactive)
OVCAR-8
  GI50: > 100 µM (inactive)
HCT-116
  GI50: > 100 µM (inactive)
OVCAR-3
  GI50: 60.8 µM (inactive)
UACC-62
  GI50: > 100 µM (inactive)
EKVX
  GI50: > 100 µM (inactive)
HOP-92
  GI50: 34.9 µM (inactive)
ACHN
  GI50: > 100 µM (inactive)
HCC 2998
  GI50: > 100 µM (inactive)
HOP-62
  GI50: > 100 µM (inactive)
LOX IMVI
  GI50: > 100 µM (inactive)
SN12C
  GI50: > 100 µM (inactive)
NCI-H460
  GI50: > 100 µM (inactive)
U-251
  GI50: > 100 µM (inactive)
SF-539
  GI50: > 100 µM (inactive)
DMS-273
  GI50: > 100 µM (inactive)
UO-31
  GI50: > 100 µM (inactive)
SK-MEL-28
  GI50: > 100 µM (inactive)
KM12
  GI50: > 100 µM (inactive)
MOLT-4
  GI50: > 100 µM (inactive)
SK-MEL-2
  GI50: > 100 µM (inactive)
SNB-78
  GI50: > 100 µM (inactive)
LXFL 529
  GI50: > 100 µM (inactive)
SW-620
  GI50: > 100 µM (inactive)
786-0
  GI50: > 100 µM (inactive)
IGROV-1
  GI50: > 100 µM (inactive)
M14
  GI50: > 100 µM (inactive)
DMS-114
  GI50: 50 µM (inactive)
XF498
  GI50: > 100 µM (inactive)
M19-MEL
  GI50: > 100 µM (inactive)
SF-295
  GI50: > 100 µM (inactive)
NCI-H23
  GI50: > 100 µM (inactive)
A549
  GI50: > 100 µM (inactive)
K562
  GI50: > 100 µM (inactive)
SK-MEL-5
  GI50: 49.7 µM (inactive)
OVCAR-4
  GI50: 52.5 µM (inactive)
Malme-3M
  GI50: > 100 µM (inactive)
HT-29
  GI50: > 100 µM (inactive)
OVCAR-5
  GI50: > 100 µM (inactive)
NCI-H226
  GI50: > 100 µM (inactive)
CCRF-CEM
  GI50: > 100 µM (inactive)
COLO 205
  GI50: > 100 µM (inactive)
SK-OV-3
  GI50: > 100 µM (inactive)
DLD-1
  GI50: > 100 µM (inactive)
TK-10
  GI50: > 100 µM (inactive)
CAKI-1
  GI50: > 100 µM (inactive)
NCI-H522
  GI50: > 100 µM (inactive)
SR
  GI50: > 100 µM (inactive)
KM-20L2
  GI50: > 100 µM (inactive)
SNB-75
  GI50: > 100 µM (inactive)
SF-268
  GI50: > 100 µM (inactive)
